This note sets out measurements from patent US5132328A, “Alcohol and ether derivatives” (Imperial Chemical Industries PLC, priority 1988, dated 1992).

For assay [1], the target named is T1, cyclooxygenase (Homo sapiens, UniProt P23219).
T1 construct: heparinised human blood, prior to challenge with the calcium ionophore A23187; endogenous in cells; host or cells: heparinised human whole blood (platelets and other blood cells, A23187-challenged)
Nature of the assay: Test (b): heparinised human blood challenged with A23187, TxB2 radioimmunoassay. Type of assay: cell-based. The method, then: (§1) (b) An in vitro assay system involving incubating a test compound with heparinised human blood, prior to challenge with the calcium ionophore A23187 and then indirectly measuring the inhibitory effects on 5-LO by assaying the amount of LTB4 using the specific radioimmunoassay described by Carey and Forder (F. Carey and R. A. Forder, Brit. J. Pharmacol. 1985, 84, 34P) which involves the use of a protein-LTB4 conjugate produced using the procedure of Young et alia (Prostaglandins, 1983, 26(4), 605-613). The effects of a test compound on the enzyme cyclooxygenase (which is involved in the alternative metabolic pathway for arachidonic acid and gives rise to prostaglandins, thromboxanes and related metabolites) may be measured at the same time using the specific radioimmunoassay for thromboxane B2 (TxB2) described by Carey and Forder (see above). This test provides an indication of the effects of a test compound against 5-LO and also cyclooxygenase in the presence of blood cells and proteins. It permits the selectivity of the inhibitory effect on 5-LO or cyclooxygenase to be assessed.

Assay [2] has as its target T2, 5-LO (Rattus norvegicus, UniProt P12527).
T2 construct: blood collection, heparinisation, challenge with A23187 and radioimmunoassay of LTB4 and TxB2; endogenous in cells
T2 sequence (P12527 1-673): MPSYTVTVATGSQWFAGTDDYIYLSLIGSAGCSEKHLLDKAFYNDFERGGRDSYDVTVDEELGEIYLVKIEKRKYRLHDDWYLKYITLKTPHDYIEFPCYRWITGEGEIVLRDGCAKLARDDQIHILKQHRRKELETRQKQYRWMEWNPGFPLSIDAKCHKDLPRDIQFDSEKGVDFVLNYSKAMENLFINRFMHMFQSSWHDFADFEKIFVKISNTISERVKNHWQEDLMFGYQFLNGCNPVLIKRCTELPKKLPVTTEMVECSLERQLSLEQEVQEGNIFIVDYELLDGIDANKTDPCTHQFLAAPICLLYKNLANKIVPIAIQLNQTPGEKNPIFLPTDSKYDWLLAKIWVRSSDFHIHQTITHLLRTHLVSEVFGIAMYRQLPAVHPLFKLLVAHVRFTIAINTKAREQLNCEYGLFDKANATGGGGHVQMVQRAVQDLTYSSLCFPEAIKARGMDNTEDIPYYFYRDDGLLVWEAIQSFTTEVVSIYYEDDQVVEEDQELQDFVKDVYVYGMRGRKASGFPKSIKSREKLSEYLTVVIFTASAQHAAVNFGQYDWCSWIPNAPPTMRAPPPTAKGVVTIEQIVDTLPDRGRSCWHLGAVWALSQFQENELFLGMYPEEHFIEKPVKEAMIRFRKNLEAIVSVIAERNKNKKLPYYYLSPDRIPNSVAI
Nature of the assay: Test (c): ex vivo assay after (usually oral) administration, blood challenged with A23187, LTB4 radioimmunoassay. Type of assay: in vivo. The method, then:
(c) An ex vivo assay system, which is a variation of test b) above, involving administration of a test compound (usually orally as the suspension produced when a solution of the test compound in dimethylsulphoxide is added to carboxymethylcellulose), blood collection, heparinisation, challenge with A23187 and radioimmunoassay of LTB4 and TxB2. This test provides an indication of the bioavailability of a test compound as an inhibitor of 5-LO or cyclooxygenase.

Assay [3] deals with T3, 5-LO (Homo sapiens, UniProt P09917).
T3 construct: heparinised human blood, prior to challenge with the calcium ionophore A23187; endogenous in cells; host or cells: heparinised human whole blood (blood cells, A23187-challenged)
T3 sequence (P09917 1-674): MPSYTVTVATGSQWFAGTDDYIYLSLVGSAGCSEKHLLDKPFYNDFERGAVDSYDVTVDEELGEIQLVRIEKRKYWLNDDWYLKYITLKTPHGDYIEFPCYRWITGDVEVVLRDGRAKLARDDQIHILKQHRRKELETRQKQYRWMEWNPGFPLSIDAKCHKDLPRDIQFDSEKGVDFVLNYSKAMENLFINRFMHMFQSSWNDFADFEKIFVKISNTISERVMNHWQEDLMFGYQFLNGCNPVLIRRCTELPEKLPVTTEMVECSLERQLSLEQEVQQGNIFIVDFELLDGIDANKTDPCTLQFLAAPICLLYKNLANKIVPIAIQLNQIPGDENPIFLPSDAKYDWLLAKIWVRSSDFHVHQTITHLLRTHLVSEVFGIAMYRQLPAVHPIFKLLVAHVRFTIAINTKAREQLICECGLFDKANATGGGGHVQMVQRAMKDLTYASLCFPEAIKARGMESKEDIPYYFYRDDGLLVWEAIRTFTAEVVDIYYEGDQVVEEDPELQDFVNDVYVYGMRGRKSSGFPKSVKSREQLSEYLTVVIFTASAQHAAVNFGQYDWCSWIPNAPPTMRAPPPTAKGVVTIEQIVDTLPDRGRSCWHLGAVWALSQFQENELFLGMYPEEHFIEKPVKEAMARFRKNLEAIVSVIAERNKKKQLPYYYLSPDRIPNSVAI
Put plainly: Test (b): heparinised human blood challenged with A23187, LTB4 radioimmunoassay. In kind it is cell-based. The procedure: as §1

T1 sequence (P23219 24-599): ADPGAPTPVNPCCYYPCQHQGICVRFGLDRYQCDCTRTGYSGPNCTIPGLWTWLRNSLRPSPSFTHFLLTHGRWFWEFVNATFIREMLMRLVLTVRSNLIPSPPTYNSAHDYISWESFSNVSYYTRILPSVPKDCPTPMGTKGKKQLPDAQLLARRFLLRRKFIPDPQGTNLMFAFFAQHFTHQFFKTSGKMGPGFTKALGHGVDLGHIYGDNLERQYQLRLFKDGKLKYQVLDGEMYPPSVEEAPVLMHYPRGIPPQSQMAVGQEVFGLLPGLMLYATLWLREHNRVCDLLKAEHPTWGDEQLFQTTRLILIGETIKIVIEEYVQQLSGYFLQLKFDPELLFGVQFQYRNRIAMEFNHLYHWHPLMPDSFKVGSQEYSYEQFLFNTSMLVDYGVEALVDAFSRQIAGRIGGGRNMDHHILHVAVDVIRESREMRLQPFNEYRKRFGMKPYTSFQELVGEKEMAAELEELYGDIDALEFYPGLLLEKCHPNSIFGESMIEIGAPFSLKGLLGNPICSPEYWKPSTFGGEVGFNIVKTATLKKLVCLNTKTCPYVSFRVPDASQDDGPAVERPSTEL

As a reminder, the IC50 is the concentration that gives 50% inhibition. A low value points to inhibition by little substance. As usually defined, the ED50 is the dose at which the effect has come halfway, by size or by number of responders. In the case of `CCC(COC)(OC)c1cccc(OCc2ccc3ccccc3c2)c1` (stereo not drawn) [2-methoxy-2-[3-(naphth-2-ylmethoxy)phenyl]but-1-yl methyl ether], the IC50 was above 40000 nM in assay [1] and 500 nM in assay [3]. In assay [2], this compound displayed an ED50 of 30 mg/kg.
